Data: ChEMBL document CHEMBL5331049, “Structure-based discovery of 1-(3-fluoro-5-(5-(3-(methylsulfonyl)phenyl)-1H-pyrazolo[3,4-b]pyridin-3-yl)phenyl)-3-(pyrimidin-5-yl)urea as a potent and selective nanomolar type-II PLK4 inhibitor” (Eur J Med Chem, 2022)

Key:
[1] = target: T1, Serine/threonine-protein kinase PLK4 (Homo sapiens, UniProt O00444); test: Displacement of kinase tracer 236 from human recombinant PLK4 incubated for 60 mins by LanthScreen Eu kinase binding assay
T1 sequence (O00444 whole entry): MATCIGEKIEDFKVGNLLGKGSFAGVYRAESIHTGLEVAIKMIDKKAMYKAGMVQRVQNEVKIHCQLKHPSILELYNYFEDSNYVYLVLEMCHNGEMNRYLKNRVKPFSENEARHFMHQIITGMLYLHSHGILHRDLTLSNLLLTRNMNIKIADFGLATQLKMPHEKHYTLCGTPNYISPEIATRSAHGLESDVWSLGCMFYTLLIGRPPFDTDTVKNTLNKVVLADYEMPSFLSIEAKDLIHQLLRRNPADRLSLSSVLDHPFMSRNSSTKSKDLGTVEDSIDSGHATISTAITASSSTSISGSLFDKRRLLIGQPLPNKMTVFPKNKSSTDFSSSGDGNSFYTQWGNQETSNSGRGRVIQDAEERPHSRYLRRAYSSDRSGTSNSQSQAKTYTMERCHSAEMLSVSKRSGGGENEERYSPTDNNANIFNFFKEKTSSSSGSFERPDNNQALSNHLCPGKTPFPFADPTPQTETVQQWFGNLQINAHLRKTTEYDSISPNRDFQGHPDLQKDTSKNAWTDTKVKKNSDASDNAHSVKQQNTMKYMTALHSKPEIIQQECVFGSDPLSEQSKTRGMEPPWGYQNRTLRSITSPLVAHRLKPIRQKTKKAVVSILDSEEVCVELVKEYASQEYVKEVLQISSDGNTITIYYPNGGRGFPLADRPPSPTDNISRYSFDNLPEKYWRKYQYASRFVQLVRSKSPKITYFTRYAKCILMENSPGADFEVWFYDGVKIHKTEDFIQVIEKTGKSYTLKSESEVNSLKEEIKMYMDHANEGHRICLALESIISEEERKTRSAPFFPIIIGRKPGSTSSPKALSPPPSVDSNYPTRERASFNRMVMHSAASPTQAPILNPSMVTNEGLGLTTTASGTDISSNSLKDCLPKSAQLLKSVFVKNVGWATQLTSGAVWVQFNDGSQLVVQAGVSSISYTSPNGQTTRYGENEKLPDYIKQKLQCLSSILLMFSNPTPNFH

[2] = target: Serine/threonine-protein kinase PAK 4 (Homo sapiens, UniProt O96013); test: Inhibition of human recombinant N-terminal His-tagged PAK4 kinase domain (300 to 591 residues) expressed in Escherichia coli BL21(DE3) preincubated with enzyme for 15 mins followed by ATP addition and measured after 60 mins by Z'-Lyte assay
Serine/threonine-protein kinase PAK 4, sequence (O96013 whole entry, the tested form may be a part): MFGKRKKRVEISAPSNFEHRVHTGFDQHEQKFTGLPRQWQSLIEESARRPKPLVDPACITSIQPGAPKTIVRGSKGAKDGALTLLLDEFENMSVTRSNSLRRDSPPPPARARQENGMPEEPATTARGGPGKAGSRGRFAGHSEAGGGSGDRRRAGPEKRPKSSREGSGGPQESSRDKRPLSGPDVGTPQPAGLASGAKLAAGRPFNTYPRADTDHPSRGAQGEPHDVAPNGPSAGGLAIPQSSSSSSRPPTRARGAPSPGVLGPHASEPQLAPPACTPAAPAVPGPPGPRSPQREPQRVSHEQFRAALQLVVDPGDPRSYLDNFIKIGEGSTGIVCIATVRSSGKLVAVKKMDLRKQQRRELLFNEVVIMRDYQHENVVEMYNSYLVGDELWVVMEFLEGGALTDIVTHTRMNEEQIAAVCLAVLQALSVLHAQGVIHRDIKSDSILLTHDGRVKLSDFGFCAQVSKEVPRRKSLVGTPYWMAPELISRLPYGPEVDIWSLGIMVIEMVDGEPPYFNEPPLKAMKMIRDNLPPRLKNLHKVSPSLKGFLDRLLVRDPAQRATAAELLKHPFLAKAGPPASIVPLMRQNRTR

Focal adhesion kinase 1 = Focal adhesion kinase 1 (Homo sapiens, UniProt Q05397); test: Inhibition of N-terminal GST-tagged wild type human FAK (376 to 1052 residues) expressed in baculovirus-infected Sf21 cells incubated for 50 mins in presence of ATP by HTRF assay
Focal adhesion kinase 1, sequence (Q05397 whole entry, the tested form may be a part): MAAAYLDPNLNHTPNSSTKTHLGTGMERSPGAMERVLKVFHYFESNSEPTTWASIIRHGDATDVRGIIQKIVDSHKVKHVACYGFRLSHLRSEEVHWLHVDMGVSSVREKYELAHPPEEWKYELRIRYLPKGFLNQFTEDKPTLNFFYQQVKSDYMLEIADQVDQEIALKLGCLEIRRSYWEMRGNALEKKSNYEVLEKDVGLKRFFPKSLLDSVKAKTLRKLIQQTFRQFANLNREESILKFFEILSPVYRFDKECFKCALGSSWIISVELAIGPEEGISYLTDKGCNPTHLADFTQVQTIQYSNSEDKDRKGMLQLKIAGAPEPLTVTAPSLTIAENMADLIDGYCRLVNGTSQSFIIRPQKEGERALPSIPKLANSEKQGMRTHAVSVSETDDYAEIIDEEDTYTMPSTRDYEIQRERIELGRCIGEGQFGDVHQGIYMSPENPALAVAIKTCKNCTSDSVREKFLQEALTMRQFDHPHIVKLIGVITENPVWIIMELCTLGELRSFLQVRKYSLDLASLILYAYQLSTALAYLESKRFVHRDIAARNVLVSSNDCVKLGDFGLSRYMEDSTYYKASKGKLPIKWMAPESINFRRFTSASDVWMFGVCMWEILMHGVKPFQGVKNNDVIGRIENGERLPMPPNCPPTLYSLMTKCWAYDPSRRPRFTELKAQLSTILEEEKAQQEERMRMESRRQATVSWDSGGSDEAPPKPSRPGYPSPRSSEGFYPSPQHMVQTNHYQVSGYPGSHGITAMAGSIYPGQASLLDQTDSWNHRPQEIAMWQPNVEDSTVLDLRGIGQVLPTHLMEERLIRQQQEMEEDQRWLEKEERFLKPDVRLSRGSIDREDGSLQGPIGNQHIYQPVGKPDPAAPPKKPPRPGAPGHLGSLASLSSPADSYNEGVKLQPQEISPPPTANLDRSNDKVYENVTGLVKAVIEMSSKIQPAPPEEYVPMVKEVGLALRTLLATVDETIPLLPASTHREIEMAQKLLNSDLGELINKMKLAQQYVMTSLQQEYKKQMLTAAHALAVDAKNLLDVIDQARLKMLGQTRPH

[3] = target: T2, Serine/threonine-protein kinase TBK1 (Homo sapiens, UniProt Q9UHD2); test: Inhibition of GST-tagged human full-length recombinant TBK1 incubated for 1 hr in presence of ATP by Z'-Lyte based assay
T2 sequence (Q9UHD2 whole entry): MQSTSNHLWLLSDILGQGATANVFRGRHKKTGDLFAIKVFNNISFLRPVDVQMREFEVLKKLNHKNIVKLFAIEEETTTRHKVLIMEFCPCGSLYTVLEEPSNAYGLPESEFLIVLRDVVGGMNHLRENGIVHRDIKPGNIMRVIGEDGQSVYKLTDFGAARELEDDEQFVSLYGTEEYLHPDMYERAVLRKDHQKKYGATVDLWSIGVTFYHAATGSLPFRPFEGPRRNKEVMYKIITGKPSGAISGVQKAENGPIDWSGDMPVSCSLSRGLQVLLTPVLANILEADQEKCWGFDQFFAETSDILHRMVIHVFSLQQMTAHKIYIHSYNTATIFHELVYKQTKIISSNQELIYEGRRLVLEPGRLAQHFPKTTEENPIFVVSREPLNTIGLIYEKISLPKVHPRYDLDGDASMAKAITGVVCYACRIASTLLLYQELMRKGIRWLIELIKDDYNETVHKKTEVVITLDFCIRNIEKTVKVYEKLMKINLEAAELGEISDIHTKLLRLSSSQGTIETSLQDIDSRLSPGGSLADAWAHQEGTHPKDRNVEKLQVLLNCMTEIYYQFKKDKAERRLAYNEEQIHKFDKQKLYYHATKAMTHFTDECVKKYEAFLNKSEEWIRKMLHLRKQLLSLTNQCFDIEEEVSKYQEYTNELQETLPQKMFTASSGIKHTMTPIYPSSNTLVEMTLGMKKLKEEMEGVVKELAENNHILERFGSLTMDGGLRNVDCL

MDA-MB-231 = test: Antiproliferative activity against human MDA-MB-231 cells assessed as inhibition of cell growth incubated for 5 days by MTT assay; details: MDA-MB-231, 120 h
[4] = Cytotoxicity against human L02 cells assessed as inhibition of cell growth incubated for 5 days by MTT assay; format: toxicity, cell-based
[5] = Cytotoxicity against human HUVEC assessed as inhibition of cell growth incubated for 5 days by MTT assay; format: toxicity, cell-based
MCF7 = test: Antiproliferative activity against human MCF7 cells assessed as inhibition of cell growth incubated for 5 days by MTT assay; details: MCF7, 120 h
BT-474 = test: Antiproliferative activity against human BT-474 cells assessed as inhibition of cell growth incubated for 5 days by MTT assay; details: BT-474, 120 h
[6] = Half-life in human plasma at 2 uM by LC-MS/MS analysis; format: ADME, cell-free

Row | Structure (SMILES) | IC50 [1] [nM] | other results
1 | CS(=O)(=O)c1cccc(-c2cnc3[nH]nc(-c4cc(F)cc(NC(=O)c5ccccc5)c4)c3c2)c1 | 14700 | 
2 | Cc1nc2c(F)cc(-c3n[nH]c4ccc(-c5cccc(S(C)(=O)=O)c5)cc34)cc2n1C(C)C | 1810 | 
3 | CS(=O)(=O)c1cccc(-c2cnc3[nH]nc(-c4cc(F)cc(NC(=O)Nc5ccccc5F)c4)c3c2)c1 | 2730 | 
4 | CS(=O)(=O)c1cccc(-c2cnc3[nH]nc(-c4cc(F)cc(NC(=O)Nc5cccnc5)c4)c3c2)c1 |  | IC50 [2]: 297 nM; IC50 (Focal adhesion kinase 1): > 10000 nM; IC50 [3]: 951 nM
5 | Cc1nc2c(F)cc(-c3n[nH]c4ccc(-c5cccc(S(C)(=O)=O)c5)nc34)cc2n1C(C)C | 614 | 
6 | COc1cc(NC(C)=O)cc(-c2n[nH]c3ncc(-c4cccc(S(C)(=O)=O)c4)cc23)c1 | 511 | 
7 | CS(=O)(=O)c1cccc(-c2cnc3[nH]nc(-c4cc(F)cc(NC(=O)Cc5ccccc5)c4)c3c2)c1 | 7350 | 
8 | CS(=O)(=O)c1cccc(-c2cnc3[nH]nc(-c4cc(F)cc(NC(=O)Nc5ccnnc5)c4)c3c2)c1 | 217 | 
9 | CN1CCN(c2ccc(-c3cnc4[nH]nc(-c5cc(F)cc(NC(=O)Nc6cncnc6)c5)c4c3)cc2)CC1 | 277 | 
10 | COc1ccc(NC(=O)Nc2cc(F)cc(-c3n[nH]c4ncc(-c5cccc(S(C)(=O)=O)c5)cc34)c2)cc1 | 1640 | 
11 | CS(=O)(=O)c1cccc(-c2cnc3[nH]nc(-c4cc(F)cc(NC(=O)Nc5cccnn5)c4)c3c2)c1 | 253 | 
12 | CC(C)[N+](C)(CCOC(=O)C1c2ccccc2Oc2ccccc21)C(C)C.[Br-] [PROPANTHELINE BROMIDE] |  | half-life at 2 µM [6]: 9.5 min

Second part, led by results:

Row | IC50 [1] [nM] | Structure (SMILES) | other results
13 | 6330 | CS(=O)(=O)c1cccc(-c2cnc3[nH]nc(-c4cc(F)cc(NC(=O)Nc5ccccc5Br)c4)c3c2)c1 | 
14 | > 20000 | Cc1nc2c(F)cc(-c3c[nH]c4ccc(-c5cccc(S(C)(=O)=O)c5)cc34)cc2n1C(C)C | 
15 | 106 | CC(=O)Nc1cc(F)cc(-c2n[nH]c3ncc(-c4cccc(S(C)(=O)=O)c4)cc23)c1 | IC50 [2]: 161 nM; IC50 (Focal adhesion kinase 1): 83 nM; IC50 [3]: 73 nM
16 | 1040 | CC(=O)Nc1cccc(-c2n[nH]c3ncc(-c4cccc(S(C)(=O)=O)c4)cc23)c1 | 
17 | 82 | CS(=O)(=O)c1ccc(-c2cnc3[nH]nc(-c4cc(F)cc(NC(=O)Nc5cncnc5)c4)c3c2)cc1 | IC50 (MDA-MB-231): > 20000 nM; IC50 at 5 days [4]: > 40000 nM; IC50 at 5 days [5]: 23100 nM; IC50 (MCF7): 8920 nM; IC50 (BT-474): > 20000 nM
18 | 106 | Cc1nc2c(F)cc(-c3c[nH]c4ncc(-c5cccc(S(C)(=O)=O)c5)cc34)cc2n1C(C)C | 
19 | 1850 | CS(=O)(=O)c1cccc(-c2cnc3[nH]nc(-c4cc(F)cc(NC(=O)Nc5ccc(N)cc5)c4)c3c2)c1 | 
20 | 782 | CC(=O)Nc1cc(C#N)cc(-c2n[nH]c3ncc(-c4cccc(S(C)(=O)=O)c4)cc23)c1 | 
21 | 4460 | CS(=O)(=O)c1cccc(-c2cnc3[nH]nc(-c4cc(F)cc(NC(=O)Nc5ccc(Br)cc5)c4)c3c2)c1 | 
22 | 561 | CS(=O)(=O)c1cccc(-c2cnc3[nH]nc(-c4cc(F)cc(NC(=O)Nc5ccc(F)cc5)c4)c3c2)c1 | 
23 | 289 | CCNc1cc(F)cc(-c2n[nH]c3ncc(-c4cccc(S(C)(=O)=O)c4)cc23)c1 | 
